From patent US3981814A, “Bacteriostatic substituted benzanilide compositions and methods for their use” (Givaudan Corporation, priority 1975, dated 1976)
Converted amounts (≈) assume the structure as drawn.

System: Staphylococcus aureus
Assay: In vitro soap bacteriostatic test (agar dilution, spot inoculation, 35°, 48 hours)
Type: cell-based
Conditions: for MIC: Staphylococcus aureus, without soap, read-out: Compound Activity Without Soap: minimum concentration where S. aureus growth is completely inhibited; for Compound Activity With Soap: minimum concentration where S. aureus growth is completely inhibited: ratio of soap to compound 100:1
Protocol: The antibacterial properties of the compounds prepared in Examples 1 - 14 were tested in soap. The in vitro soap bacteriostatic tests were conducted as follows: The compound is dissolved in a suitable solvent, usually dimethylformamide, to give a 6% solution. One-half ml. aliquot was added to 100 ml. of 3% solution of bar soap stock solution. The solid soap used was a neutral white toilet soap of the "LUX" type. The fatty acids in this soap were of the following composition: This yields an aqueous soap solution containing 30,000 mcg./ml. soap and 300 mcg./ml. compound. The soap/compound ratio in the latter is 100/l. A two-fold serial dilution series is prepared with this solution using sterile distilled water in test tubes such that the final volume in each tube is 2.0 ml. To each test tube is added 28 ml. of molten Dextrose Trypticase Extract Agar (B.B.L.). The tube contents were poured into sterile Petri plates and allowed to harden. The highest final concentration of compound in the serial dilution series is 20 mcg./ml. Plates were spot inoculated with a broth culture of Staphylococcus aureus and incubated at 35° for 48 hours. The lowest concentration completely inhibiting growth of the test organism, in mcg./ml. is recorded as the bacteriostatic concentration of the compound. Tests in the absence of soap are made in a similar manner except that all dilutions are made in solvent. The final concentration in the agar should not be greater than 5%. The results of these tests with the compounds of the present invention as compared with compounds having chemical structures closely related to the compounds of the present invention (designated by the symbol "C") are set forth in the Table. Column 1 contains the data as to the activity of the test solution without soap; column 2 refers to tests in which the ratio of soap to compound is 100:1. […] Growth is observed at the next lower concentration.

| SMILES | MIC | Compound Activity With Soap: minimum concentration where S. aureus growth is completely inhibited |
| --- | --- | --- |
| O=C(Nc1cccc(C(F)(F)F)c1)c1ccc(Cl)cc1 [Compound 1, 4-Chloro-3'-(trifluoromethyl) benzanilide] | 10 µg/mL (≈ 33.4 µM) | 0.625 µg/mL |
| O=C(Nc1cccc(C(F)(F)F)c1)c1cccc(Cl)c1 [Compound 2] | > 20 µg/mL | 2.5 µg/mL |
| O=C(Nc1cccc(C(F)(F)F)c1)c1ccc(Br)cc1 [Compound 3] | > 20 µg/mL | 2.5 µg/mL |
| O=C(Nc1cccc(C(F)(F)F)c1)c1cccc(Br)c1 [Compound 4] | > 20 µg/mL | 2.5 µg/mL |
| O=C(Nc1cccc(C(F)(F)F)c1)c1ccc(Cl)c(Cl)c1 [Compound 5] | > 20 µg/mL | 2.5 µg/mL |
| O=C(Nc1cccc(C(F)(F)F)c1)c1cc(Cl)cc(Cl)c1 [Compound 6] | > 20 µg/mL | 2.5 µg/mL |
| O=C(Nc1ccc(Cl)c(C(F)(F)F)c1)c1ccc(C(F)(F)F)cc1 [Compound 7, 4'-Chloro-α,α,α,α',α ',α ', -hexafluoro-p-tolu-m-toluidide] | 0.625 µg/mL (≈ 1.7 µM) | 0.312 µg/mL |
| O=C(Nc1ccc(Cl)c(C(F)(F)F)c1)c1ccc(Cl)cc1 [Compound 8, 4,4'-Dichloro-3'(trifluoromethyl) benzanilide] | 2.5 µg/mL (≈ 7.48 µM) | 0.625 µg/mL |
| O=C(Nc1ccc(Cl)c(C(F)(F)F)c1)c1cccc(Cl)c1 [Compound 9, 3,4'-dichloro-α,α,α-trifluoro-m-benzo-toluidide] | > 20 µg/mL | 0.625 µg/mL |
| O=C(Nc1ccc(Cl)c(C(F)(F)F)c1)c1ccc(Br)cc1 [Compound 10, 4-bromo-4'-chloro-α,α,α-trifluoro-m-benzotoluidide] | 0.625 µg/mL (≈ 1.65 µM) | 0.312 µg/mL |
| O=C(Nc1ccc(Cl)c(C(F)(F)F)c1)c1cccc(Br)c1 [Compound 11] | > 20 µg/mL | 2.5 µg/mL |
| O=C(Nc1ccc(Cl)c(C(F)(F)F)c1)c1ccc(Cl)c(Cl)c1 [Compound 12] | > 20 µg/mL | 0.312 µg/mL |
| O=C(Nc1ccc(Br)c(C(F)(F)F)c1)c1cccc(Br)c1 [Compound 14, 3,4'-dibromo-α,α,α-trifluoro-m-benzotoluidide] | > 20 µg/mL | 1.25 µg/mL |
| O=C(Nc1ccc(Br)c(C(F)(F)F)c1)c1ccc(Cl)cc1 [Compound 15, 4'-bromo-4-chloro-α,α,α-trifluoro-m-benzotoluidide] | 0.625 µg/mL (≈ 1.65 µM) | 0.625 µg/mL |
| O=C(Nc1ccc(Br)c(C(F)(F)F)c1)c1ccc(Cl)c(Cl)c1 [Compound 16, 4'-bromo-3,4-dichloro-α,α,α-trifluoro-m-benzotoluidide] | > 20 µg/mL | 0.312 µg/mL |
| O=C(Nc1ccc(F)c(C(F)(F)F)c1)c1ccc(Cl)cc1 [Compound 17, 4-chloro-α,α,α, 4'-tetrafluoro-m-benzotoluidide] | > 20 µg/mL | 1.25 µg/mL |
| O=C(Nc1ccc(F)c(C(F)(F)F)c1)c1ccc(Br)cc1 [Compound 18, 4-bromo-α,α,α, 4' -tetrafluoro-m-benzotoluidide] | > 20 µg/mL | 1.25 µg/mL |
| O=C(Nc1cc(C(F)(F)F)cc(C(F)(F)F)c1)c1ccc(Cl)c(Cl)c1 [Compound 21, 3,4-dichloro-α,α,α,α',α',α'-hexafluorobenzo-3',5'-xylidide] | > 20 µg/mL | 0.312 µg/mL |
| CC(C)(C)c1ccc(C(=O)Nc2ccc(Cl)c(C(F)(F)F)c2)cc1 [Compound 22] | > 20 µg/mL | 2.5 µg/mL |

Now from value to compound, other results behind:

| MIC | SMILES | Compound Activity With Soap: minimum concentration where S. aureus growth is completely inhibited |
| --- | --- | --- |
| > 20 µg/mL | O=C(Nc1cccc(C(F)(F)F)c1)c1ccccc1Cl [Compound C1] | 10.0 µg/mL |
| > 10 µg/mL | O=C(Nc1cccc(C(F)(F)F)c1)c1ccccc1Br [Compound C2] | B (Inactive at 10 mcg./ml. (highest concentration tested)) |
| > 20 µg/mL | O=C(Nc1cccc(C(F)(F)F)c1)c1ccc(F)cc1 [Compound C3] | 10.0 µg/mL |
| > 20 µg/mL | O=C(Nc1cccc(C(F)(F)F)c1)c1cccc(C(F)(F)F)c1 [Compound C4] | 10.0 µg/mL |
| > 20 µg/mL | O=C(Nc1cccc(C(F)(F)F)c1)c1ccccc1 [Compound C5] | 10.0 µg/mL |
| > 10 µg/mL | O=C(Nc1ccccc1C(F)(F)F)c1ccccc1Cl [Compound C8] | B (Inactive at 10 mcg./ml. (highest concentration tested)) |
| > 10 µg/mL | O=C(Nc1ccc(C(F)(F)F)cc1)c1ccc(Cl)cc1 [Compound C9] | B (Inactive at 10 mcg./ml. (highest concentration tested)) |
| 20 µg/mL (≈ 70.6 µM) | O=C(Nc1ccc(C(F)(F)F)cc1)c1ccc(F)cc1 [Compound C10] | 5.0 µg/mL |
| > 10 µg/mL | O=C(Nc1ccc(Cl)c(C(F)(F)F)c1)c1cc(Cl)cc(Cl)c1 [Compound C11] | B (Inactive at 10 mcg./ml. (highest concentration tested)) |
| > 20 µg/mL | O=C(Nc1ccc(Cl)c(C(F)(F)F)c1)c1ccccc1Cl [Compound C12] | 10.0 µg/mL |
| > 20 µg/mL | O=C(Nc1ccc(Cl)c(C(F)(F)F)c1)c1ccc(F)cc1 [Compound C13] | 5.0 µg/mL |
| > 10 µg/mL | O=C(Nc1ccc(Cl)c(C(F)(F)F)c1)c1ccccc1Br [Compound C14] | B (Inactive at 10 mcg./ml. (highest concentration tested)) |
| > 10 µg/mL | O=C(Nc1cc(C(F)(F)F)ccc1Cl)c1ccc(Cl)cc1 [Compound C15] | B (Inactive at 10 mcg./ml. (highest concentration tested)) |
| > 10 µg/mL | O=C(Nc1cc(C(F)(F)F)ccc1Cl)c1cccc(Cl)c1 [Compound C16] | B (Inactive at 10 mcg./ml. (highest concentration tested)) |
| > 10 µg/mL | O=C(Nc1cc(C(F)(F)F)ccc1Cl)c1ccccc1Cl [Compound C17] | B (Inactive at 10 mcg./ml. (highest concentration tested)) |
| > 10 µg/mL | O=C(Nc1cc(C(F)(F)F)ccc1Cl)c1ccc(F)cc1 [Compound C18] | B (Inactive at 10 mcg./ml. (highest concentration tested)) |
| > 10 µg/mL | O=C(Nc1cc(C(F)(F)F)ccc1Cl)c1cccc(Br)c1 [Compound C19] | B (Inactive at 10 mcg./ml. (highest concentration tested)) |
| > 10 µg/mL | O=C(Nc1ccc(Cl)cc1C(F)(F)F)c1ccc(Cl)cc1 [Compound C20] | B (Inactive at 10 mcg./ml. (highest concentration tested)) |
| > 10 µg/mL | O=C(Nc1ccc(Cl)cc1C(F)(F)F)c1cccc(Cl)c1 [Compound C21] | B (Inactive at 10 mcg./ml. (highest concentration tested)) |
| > 10 µg/mL | O=C(Nc1ccc(Cl)cc1C(F)(F)F)c1ccccc1Cl [Compound C22] | B (Inactive at 10 mcg./ml. (highest concentration tested)) |
| > 20 µg/mL | N#CSc1ccc(NC(=O)c2ccc(Cl)cc2)cc1C(F)(F)F [Compound C23] | 5.0 µg/mL |
| > 10 µg/mL | N#CSc1ccc(NC(=O)c2ccc(Cl)c(Cl)c2)cc1C(F)(F)F [Compound C24] | B (Inactive at 10 mcg./ml. (highest concentration tested)) |
| > 20 µg/mL | O=C(Nc1cc(C(F)(F)F)cc(C(F)(F)F)c1)c1cccc(Cl)c1 [Compound C25] | 10.0 µg/mL |
| > 20 µg/mL | O=C(Nc1cc(C(F)(F)F)cc(C(F)(F)F)c1)c1ccccc1Cl [Compound C26] | 10.0 µg/mL |
